Measurements reported in article PMC5321445, “Inhibition of Arabidopsis chloroplast β-amylase BAM3 by maltotriose suggests a mechanism for the control of transitory leaf starch mobilisation” (PLoS ONE, 2017).

What was measured:
Format in all cases: biochemical
BAM3 = target: T1, BAM3 (Arabidopsis thaliana, UniProt O23553); experiment: GC-MS maltose assay, Lineweaver-Burk and non-linear regression; conditions: substrate maltohexaose 2.5-25 mM; mixed inhibition; 50 mM sodium acetate, 5 mM DTT, 5 mM EDTA, pH 6.0, 25°C
T1 sequence (O23553 50-548): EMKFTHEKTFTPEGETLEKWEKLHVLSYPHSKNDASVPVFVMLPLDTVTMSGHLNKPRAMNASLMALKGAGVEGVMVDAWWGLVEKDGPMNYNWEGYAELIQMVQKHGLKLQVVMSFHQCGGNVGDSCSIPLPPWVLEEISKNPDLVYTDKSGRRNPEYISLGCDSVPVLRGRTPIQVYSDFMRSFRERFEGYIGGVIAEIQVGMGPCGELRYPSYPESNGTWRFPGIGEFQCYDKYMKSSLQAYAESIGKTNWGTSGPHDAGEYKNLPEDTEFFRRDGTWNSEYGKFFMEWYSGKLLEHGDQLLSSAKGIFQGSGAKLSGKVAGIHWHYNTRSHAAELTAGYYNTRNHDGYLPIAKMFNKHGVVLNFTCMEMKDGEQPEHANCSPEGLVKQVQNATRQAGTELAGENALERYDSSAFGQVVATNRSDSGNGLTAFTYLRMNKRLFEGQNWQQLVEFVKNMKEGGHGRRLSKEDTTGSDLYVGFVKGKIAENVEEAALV

BAM1 = target: T2, BAM1 (Arabidopsis thaliana, UniProt Q9LIR6); experiment: Betamyl colorimetric assay, p-nitrophenol release; conditions: 2.5 mM substrate, 0.1 M maleic acid pH 6.2, 40°C; enzyme pre-treated with 20 mM DTT
T2 sequence (Q9LIR6 42-575): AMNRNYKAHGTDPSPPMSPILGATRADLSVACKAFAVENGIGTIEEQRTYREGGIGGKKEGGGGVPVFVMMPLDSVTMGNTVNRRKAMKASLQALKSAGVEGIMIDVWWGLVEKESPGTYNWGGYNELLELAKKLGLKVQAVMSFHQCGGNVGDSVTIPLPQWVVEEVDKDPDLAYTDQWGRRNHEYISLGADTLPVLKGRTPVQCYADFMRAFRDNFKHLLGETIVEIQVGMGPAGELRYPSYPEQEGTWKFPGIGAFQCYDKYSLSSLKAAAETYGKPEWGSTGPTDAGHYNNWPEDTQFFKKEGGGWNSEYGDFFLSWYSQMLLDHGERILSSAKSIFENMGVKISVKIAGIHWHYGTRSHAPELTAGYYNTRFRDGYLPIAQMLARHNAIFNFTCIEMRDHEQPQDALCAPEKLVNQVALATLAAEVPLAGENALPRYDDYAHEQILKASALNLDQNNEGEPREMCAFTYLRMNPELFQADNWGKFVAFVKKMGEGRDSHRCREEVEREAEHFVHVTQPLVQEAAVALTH

barley BAM = target: T3, barley BAM (Hordeum vulgare, UniProt P16098); experiment: Betamyl colorimetric assay, p-nitrophenol release; conditions: 2.5 mM substrate, 0.1 M maleic acid pH 6.2, 40°C; enzyme pre-treated with 20 mM DTT
T3 construct: gene BMY1; commercial barley seed beta-amylase (Sigma A7130), native preparation, lyophilised powder
T3 sequence (P16098 whole entry): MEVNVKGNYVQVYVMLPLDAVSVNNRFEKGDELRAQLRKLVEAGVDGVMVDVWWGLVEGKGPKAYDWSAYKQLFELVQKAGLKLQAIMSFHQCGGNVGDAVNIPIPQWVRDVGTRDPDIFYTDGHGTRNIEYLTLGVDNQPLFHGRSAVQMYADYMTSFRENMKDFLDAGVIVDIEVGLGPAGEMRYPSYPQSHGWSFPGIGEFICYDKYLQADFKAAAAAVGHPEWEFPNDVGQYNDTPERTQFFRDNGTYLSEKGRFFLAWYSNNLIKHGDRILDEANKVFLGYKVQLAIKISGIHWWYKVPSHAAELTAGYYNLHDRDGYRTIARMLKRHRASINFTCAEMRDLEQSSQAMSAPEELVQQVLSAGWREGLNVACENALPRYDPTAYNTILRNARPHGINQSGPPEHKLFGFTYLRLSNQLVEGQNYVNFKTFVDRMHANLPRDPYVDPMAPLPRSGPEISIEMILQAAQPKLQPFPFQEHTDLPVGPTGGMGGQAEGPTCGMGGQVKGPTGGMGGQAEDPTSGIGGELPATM

Row | Structure (SMILES) | Ki (BAM3) | Betamyl colorimetric assay, p-nitrophenol release (BAM1) | Betamyl colorimetric assay, p-nitrophenol release (barley BAM)
1 | OC[C@H]1O[C@H](O[C@H]2[C@H](O)[C@@H](O)[C@@H](O[C@H]3[C@H](O)[C@@H](O)C(O)O[C@@H]3CO)O[C@@H]2CO)[C@H](O)[C@@H](O)[C@@H]1O (stereo partly drawn) [G3, maltotriose] | 7.5 mM |  | 
2 | O=[N+]([O-])c1ccc(O[C@H]2O[C@H](CO)[C@@H](O[C@H]3O[C@H](CO)[C@@H](O[C@H]4O[C@H](CO)[C@@H](O[C@H]5O[C@H](CO)[C@@H](O[C@H]6O[C@H](CO)[C@@H](O)[C@H](O)[C@H]6O)[C@H](O)[C@H]5O)[C@H](O)[C@H]4O)[C@H](O)[C@H]3O)[C@H](O)[C@H]2O)cc1 [PNPG5, p-nitrophenyl maltopentaoside] |  | we assayed recombinant BAM1 and commercially-purchased barley seed β-amylase, under the same conditions | we assayed recombinant BAM1 and commercially-purchased barley seed β-amylase, under the same conditions
